# In patent US11104675B2, “PTPN11 inhibitors” (NAVIRE PHARMA, INC., priority 2018, dated 2021):
# What was measured:
# [1] = target: PTPN11-E76K mutant enzyme (Homo sapiens (Human), UniProt Q06124, E76K); assay: PTPN11 Enzymatic Assay (DiFMUP phosphatase activity); assay type: biochemical; settings: full length PTPN11-E76K, DiFMUP substrate; read-out: IC50, inhibition of PTPN11-E76K mutant enzyme
# KYSE520 xenografts = assay: In vivo anti-tumor efficacy, KYSE520 xenograft model; parameters: species or system NSG (NOD scid gamma) mice; settings: NSG mice, subcutaneous KYSE520 xenografts, oral gavage once a day for 21 days
# Sequence of PTPN11-E76K mutant enzyme (Q06124 whole entry E76K): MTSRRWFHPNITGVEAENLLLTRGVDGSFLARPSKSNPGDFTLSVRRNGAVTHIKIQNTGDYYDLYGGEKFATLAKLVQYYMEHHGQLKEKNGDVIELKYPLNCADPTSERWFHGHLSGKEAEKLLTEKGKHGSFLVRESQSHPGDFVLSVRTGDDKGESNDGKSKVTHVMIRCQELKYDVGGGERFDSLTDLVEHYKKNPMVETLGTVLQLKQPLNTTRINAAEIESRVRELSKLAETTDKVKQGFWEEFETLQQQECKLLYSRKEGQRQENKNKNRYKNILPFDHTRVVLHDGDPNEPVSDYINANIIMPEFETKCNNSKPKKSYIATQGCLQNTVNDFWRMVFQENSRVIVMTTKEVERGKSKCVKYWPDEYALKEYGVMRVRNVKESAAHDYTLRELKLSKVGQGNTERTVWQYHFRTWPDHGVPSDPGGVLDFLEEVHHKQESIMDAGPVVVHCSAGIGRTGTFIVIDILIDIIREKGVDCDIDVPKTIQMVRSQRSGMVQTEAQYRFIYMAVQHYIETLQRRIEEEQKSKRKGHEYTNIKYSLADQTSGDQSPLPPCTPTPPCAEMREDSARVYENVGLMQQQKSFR
IC50 [1] [µM],SMILES,tumor growth inhibition (KYSE520 xenografts)
0.092,"Cc1nc(N2CCC3(CC2)CO[C@@H](C)[C@H]3N)cc(=O)n1-c1ccc(Oc2ccn(C)n2)c(Cl)c1Cl (atropisomer, axis not shown; (Ra)) [Example 16b, 6-((3 S, 4S)-4-Amino-3-methyl-2-oxa-8-azaspiro[4.5]decan-8-yl)-3-(Ra)-(2,3-dichloro-4-((1-methyl-1H-pyrazol-3-yl)oxy)phenyl)-2-methylpyrimidin-4(3H)-one]",–
2.58,"Cc1c(N2CCC3(CC2)CO[C@@H](C)[C@H]3N)nc(C)n(-c2cccc(Cl)c2Cl)c1=O (atropisomer, axis not shown; (Sa)) [Example 10a, 6-((3S, 4S)-4-Amino-3-methyl-2-oxa-8-azaspiro[4.5]decan-8-yl)-3-(Sa)-(2,3-dichlorophenyl)-2,5-dimethylpyrimidin-4(3H)-one]",–
0.618,"Cc1nc(N2CCC3(CC2)CO[C@@H](C)[C@H]3N)c(Cl)c(=O)n1-c1ccnc(Cl)c1Cl [Example 17, 6-((3S, 4S)-4-Amino-3-methyl-2-oxa-8-azaspiro[4.5]decan-8-yl)-5-chloro-3-(2,3-dichloropyridin-4-yl)-2-methylpyrimidin-4(3H)-one]",–
0.48,"CCC1(N)CCN(c2cc(=O)n(-c3cccc(Cl)c3Cl)c(C)n2)CC1 [Example 4, 6-(4-amino-4-ethylpiperidin-1-yl)-3-(2,3-dichlorophenyl)-2-methyl-3,4-dihydropyrimidin-4-one]",–
0.203,"Cc1nc(N2CCC3(CC2)CO[C@@H](C)[C@H]3N)cc(=O)n1-c1ccc(Br)c(Cl)c1Cl [Example 6, 6-((3S,4S)-4-amino-3-methyl-2-oxa-8-azaspiro[4.5]decan-8-yl)-3-(4-bromo-2,3-dichlorophenyl)-2-methylpyrimidin-4(3H)-one]",–
> 10,"COc1cccc(-n2c(C)nc(N3CCC4(CC3)CO[C@@H](C)[C@H]4N)cc2=O)c1Cl (atropisomer, axis not shown; (Sa)) [Example 7a, 6-((3S,4S)-4-amino-3-methyl-2-oxa-8-azaspiro[4.5]decan-8-yl)-3-(Sa)-(2-chloro-3-methoxyphenyl)-2-methylpyrimidin-4(3H)-one]",–
0.003,"Cc1c(N2CCC3(CC2)CO[C@@H](C)[C@H]3N)nc(C)n(-c2ccc(Oc3ccn(C)n3)c(Cl)c2Cl)c1=O (atropisomer, axis not shown; (Ra)) [Example 18b, 6-((3 S, 4 S)-4-Amino-3-methyl-2-oxa-8-azaspiro[4.5]decan-8-yl)-3-(Ra)-(2,3-dichloro-4-((1-methyl-1H-pyrazol-3-yl)oxy)phenyl)-2,5-dimethylpyrimidin-4(3H)-one]",–
0.31,"Cc1nc(N2CCC(C)(CN)CC2)cc(=O)n1-c1cccc(Cl)c1Cl [Example 3, 6-[4-(aminomethyl)-4-methylpiperidin-1-yl]-3-(2,3-dichlorophenyl)-2-methyl-3,4-dihydropyrimidin-4-one]",–
> 1,"Cc1nc(N2CCC3(CC2)CO[C@@H](C)[C@H]3N)cc(=O)n1-c1ccc(Oc2ccccc2)c(Cl)c1Cl (atropisomer, axis not shown; (Sa)) [Example 15a, 6-((3S, 4S)-4-Amino-3-methyl-2-oxa-8-azaspiro[4.5]decan-8-yl)-3-(Sa)-(2,3-dichloro-4-phenoxyphenyl)-2-methylpyrimidin-4(3H)-one]",–
0.148,"Cc1nc(N2CCC3(CC2)CO[C@@H](C)[C@H]3N)cc(=O)n1-c1ccc(Oc2ccccc2)c(Cl)c1Cl (atropisomer, axis not shown; (Ra)) [Example 15b, 6-((3S, 4S)-4-amino-3-methyl-2-oxa-8-azaspiro[4.5]decan-8-yl)-3-(Ra)-(2,3-dichloro-4-phenoxyphenyl)-2-methylpyrimidin-4(3H)-one]",–
0.005,"Cc1c(N2CCC3(CC2)CO[C@@H](C)[C@H]3N)nc(C)n(-c2ccc(Oc3cc[nH]n3)c(Cl)c2Cl)c1=O (atropisomer, axis not shown; (Ra)) [Example 20b, 3-(4-((1H-pyrazol-3-yl)oxy)-(Ra)-2,3-dichlorophenyl)-6-((3S, 4S)-4-amino-3-methyl-2-oxa-8-azaspiro[4.5]decan-8-yl)-2,5-dimethylpyrimidin-4(3H)-one]",–
0.028,"Cc1c(N2CCC3(CC2)CO[C@@H](C)[C@H]3N)nc(C)n(-c2cccc(Cl)c2Cl)c1=O (atropisomer, axis not shown; (Ra)) [Example 10b, 6-((3S, 4S)-4-amino-3-methyl-2-oxa-8-azaspiro[4.5]decan-8-yl)-3-(Ra)-(2,3-dichlorophenyl)-2,5-dimethylpyrimidin-4(3H)-one]",dose-dependent tumor growth inhibition
1.17,"Cc1nc(N2CCC3(CC2)CO[C@@H](C)[C@H]3N)cc(=O)n1-c1cccc(F)c1F [Example 5, 6-[(3S,4S)-4-amino-3-methyl-2-oxa-8-azaspiro[4.5]decan-8-yl]-3-(2,3-difluorophenyl)-2-methyl-3,4-dihydropyrimidin-4-one]",–
> 1,"Cc1nc(N2CCC3(CC2)CO[C@@H](C)[C@H]3N)cc(=O)n1-c1cccc(C(F)(F)F)c1Cl (atropisomer, axis not shown; (Sa)) [Example 14a, 6-((3S, 4S)-4-Amino-3-methyl-2-oxa-8-azaspiro[4.5]decan-8-yl)-3-(Sa)-(2-chloro-3-(trifluoromethyl)phenyl)-2-methylpyrimidin-4(3H)-one]",–
3.46,"Cc1nc(N2CCC3(CC2)CO[C@@H](C)[C@H]3N)c(Br)c(=O)n1-c1cccc(Cl)c1Cl (atropisomer, axis not shown; (Sa)) [Example 12a, 6-((3S, 4S)-4-Amino-3-methyl-2-oxa-8-azaspiro[4.5]decan-8-yl)-5-bromo-3-(Sa)-(2,3-dichlorophenyl)-2-methylpyrimidin-4(3H)-one]",–
0.186,"Cc1cccc(-n2c(C)nc(N3CCC4(CC3)CO[C@@H](C)[C@H]4N)cc2=O)c1Cl (atropisomer, axis not shown; (Ra)) [Example 13b, 6-((3S, 4S)-4-amino-3-methyl-2-oxa-8-azaspiro[4.5]decan-8-yl)-3-(Ra)-(2-chloro-3-methylphenyl)-2-methylpyrimidin-4(3H)-one]",–
7.5,"Cc1cccc(-n2c(C)nc(N3CCC4(CC3)CO[C@@H](C)[C@H]4N)cc2=O)c1Cl (atropisomer, axis not shown; (Sa)) [Example 13a, 6-((3S, 4S)-4-Amino-3-methyl-2-oxa-8-azaspiro[4.5]decan-8-yl)-3-(Sa)-(2-chloro-3-methylphenyl)-2-methylpyrimidin-4(3H)-one]",–
9.55,"Cc1nc(N2CCC3(CC2)CO[C@@H](C)[C@H]3N)cc(=O)n1-c1ccc(Oc2ccn(C)n2)c(Cl)c1Cl (atropisomer, axis not shown; (Sa)) [Example 16a, 6-((3 S, 4S)-4-Amino-3-methyl-2-oxa-8-azaspiro[4.5]decan-8-yl)-3-(Sa)-(2,3-dichloro-4-((1-methyl-1H-pyrazol-3-yl)oxy)phenyl)-2-methylpyrimidin-4(3H)-one]",–
0.02,"Cc1nc(N2CCC3(CC2)CO[C@@H](C)[C@H]3N)c(Br)c(=O)n1-c1cccc(Cl)c1Cl (atropisomer, axis not shown; (Ra)) [Example 12b, 6-((3S, 4S)-4-amino-3-methyl-2-oxa-8-azaspiro[4.5]decan-8-yl)-5-bromo-3-(Ra)-(2,3-dichlorophenyl)-2-methylpyrimidin-4(3H)-one]",–
0.36,"Cc1nc(N2CCC3(CC2)CO[C@@H](C)[C@H]3N)cc(=O)n1-c1cccc(Cl)c1Br [Example 8, 6-((3S,4S)-4-amino-3-methyl-2-oxa-8-azaspiro[4.5]decan-8-yl)-3-(2-bromo-3-chlorophenyl)-2-methylpyrimidin-4(3H)-one]",–
0.703,"Cc1nc(N2CCC3(CC2)CO[C@@H](C)[C@H]3N)cc(=O)n1-c1cccc(C(F)(F)F)c1Cl (atropisomer, axis not shown; (Ra)) [Example 14b, 6-((3 S, 4S)-4-Amino-3-methyl-2-oxa-8-azaspiro[4.5]decan-8-yl)-3-(Ra)-(2-chloro-3-(trifluoromethyl)phenyl)-2-methylpyrimidin-4(3H)-one]",–
0.511,"Cc1c(N2CCC3(CC2)CO[C@@H](C)[C@H]3N)nc(C)n(-c2ccc(Oc3ccn(C)n3)c(Cl)c2Cl)c1=O (atropisomer, axis not shown; (Sa)) [Example 18a, 6-((3S, 4S)-4-Amino-3-methyl-2-oxa-8-azaspiro[4.5]decan-8-yl)-3-(Sa)-(2,3-dichloro-4-((1-methyl-1H-pyrazol-3-yl)oxy)phenyl)-2,5-dimethylpyrimidin-4(3H)-one]",–
0.153,"COc1cccc(-n2c(C)nc(N3CCC4(CC3)CO[C@@H](C)[C@H]4N)cc2=O)c1Cl (atropisomer, axis not shown; (Ra)) [Example 7b, 6-((3S,4S)-4-amino-3-methyl-2-oxa-8-azaspiro[4.5]decan-8-yl)-3-(Ra)-(2-chloro-3-methoxyphenyl)-2-methylpyrimidin-4(3H)-one]",–
0.012,"CNC(=O)c1ccc(Oc2ccc(-n3c(C)nc(N4CCC5(CC4)CO[C@@H](C)[C@H]5N)c(C)c3=O)c(Cl)c2Cl)cc1 (atropisomer, axis not shown; (Ra)) [Example 19b]",–
